Measured values taken from US20160068843A1 (priority 2012, published 2016).
Read-outs that look alike come from different tables or passages of the source.

System: H5N1 virus (strain A/Vietnam/1194/04)
Format: in vivo, Balb/c mice

| Compound | survival rate (mouse, in vivo) [%] | survival rate (comparison with existing flu therapeutics, started 24 hours post challenge, siRNA intranasal 100 ug per dose twice a day for two days) [%] |
| --- | --- | --- |
| NC(=O)c1ncn([C@@H]2O[C@H](CO)[C@@H](O)[C@H]2O)n1 [Ribavirin] | 0 |  |
| CC(=O)N[C@H]1[C@H]([C@H](O)[C@H](O)CO)OC(C(=O)O)=C[C@@H]1N=C(N)N [Zanamivir] |  | 40 |
